This test deals with male rats with cytopenia. Briefly: Hemostimulating activity: general analysis of the blood of male rats with cyclophosphan cytopenia. It is filed as in vivo.
Setting [1] is: 3 days after cyclophosphan 120 mg/kg.
Setting [2] is: 7 days after cyclophosphan 120 mg/kg.
The mark [3] stands for this setting: 14 days after cyclophosphan 120 mg/kg.

Marks after values point to notes of the source that are not given here.

In the case of `O=C([O-])[O-].[Li+].[Li+]` [preparation 3, lithium carbonate], under setting [1], the Erythrocytes was 3.4 ± 0.29 10^12/l, the Leucocytes is 3.22 ± 0.11* 10^9/l, the Lymphocytes turned out to be 49.7 ± 1.6 % and the Reticulocytes was 1.1 ± 0.1%. Under setting [1], this molecule yielded a Segmented neutrophils of 31 ± 1.7 %. Under setting [2], the Erythrocytes was 3.4 ± 0.29 10^12/l, the Leucocytes is 3.22 ± 0.11* 10^9/l, the Lymphocytes was 49.7 ± 1.6 % and the Reticulocytes worked out at 1.1 ± 0.1%. The same molecule displayed a Segmented neutrophils under setting [2] of 31 ± 1.7 %. For the same molecule, under setting [3], the Erythrocytes is recorded as 4.7 ± 0.27 10^12/l, the Leucocytes is on record as 5.2 ± 0.26** 10^9/l, the Lymphocytes is 70.3 ± 0.9% and the Reticulocytes is reported as 1.3 ± 0.3%. Further, the Segmented neutrophils under setting [3] is 15.0 ± 2.6 %.
For the molecule `CC(=O)N[C@@H](CSSC[C@H](NC(C)=O)C(=O)O)C(=O)O` [preparation 4, N-acetyl-L-cysteine disulfide], under setting [1], the Erythrocytes was 3.2 ± 0.33 10^12/l, the Leucocytes was 3.47 ± 0.08* 10^9/l, the Lymphocytes came to 52.5 ± 1.3 % and the Segmented neutrophils is 31 ± 1.8 %. Further, under setting [2], the Erythrocytes is reported as 3.2 ± 0.33 10^12/l, the Leucocytes is 3.47 ± 0.08* 10^9/l, the Lymphocytes came to 52.5 ± 1.3 % and the Segmented neutrophils turned out to be 31 ± 1.8 %. Under setting [3], the Erythrocytes is given as 4.1 ± 0.21 10^12/l, the Leucocytes is recorded as 5.1 ± 0.22** 10^9/l, the Lymphocytes is 71.0 ± 1.6% and the Reticulocytes is given as 1.2 ± 0.4%. Moreover, the Segmented neutrophils under setting [3] is given as 13.6 ± 1.9 %.

The values are drawn from patent US20130289108A1, “Palladium-Copper Catalysts for the Homogeneous Selective Oxidation of Thiol Groups” (priority 2011, published 2013).
